Experimental data as given in US7919488B2, “Therapeutic compounds” (Pfizer Inc., priority 2006, dated 2011).

Legend:
Type in all cases: biochemical
[1] = target: T1, CYP3A4 (Homo sapiens, UniProt P08684); experiment: IC50 against CYP3A4 by inhibition of testosterone metabolism in human liver microsomes; settings: 0.1 mg/mL human liver microsomes, 25 μM testosterone, 1 mM NADPH, 6-β-OH-testosterone production, eight minutes; read-out: IC50, μM (HLM, testosterone)
T1 construct: 0.1 mg/mL human liver microsomes; from tissue; host or cells: human liver microsomes
Method in brief: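 Testosterone used as substrate, incubated for eight minutes. 6-β-OH-testosterone formation quantified by LC-MS/MS (MRM) as peak area ratio to internal standard against a metabolite standard curve. IC50 derived from inhibition of this metabolism.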

[2] = target: T2, recombinant CYP3A4+b5 enzyme (Supersomes®) (Homo sapiens, UniProt P08684); experiment: Kiapp against recombinant CYP3A4 enzyme (Supersomes), BFC substrate; settings: recombinant CYP3A4+b5 (BD Biosciences), 5 uM BFC, 200 uM NADPH, pre-incubation at least 30 minutes, pH 7.0, room temperature
T2 construct: purchased BD Biosciences (Woburn, Mass.)
Description: 1. Determination of Compound Kiapp
A determination of the Kiapp of the compounds of the invention against recombinant CYP3A4 enzyme was performed as follows. The assay was performed in a 100 mM sodium phosphate buffer pH 7.0, 5 mM TCEP and containing 2% dimethylformamide (final concentration) upon addition of substrate and inhibitor. A typical reaction for the determination of Kiapp values was carried at room temperature in a solid black Costar u-bottom 96-well polypropylene plate. In each well, recombinant CYP3A4 enzyme (5.5 nM or 8 nM, final concentration depending on the commercial source of the enzyme) was pre-incubated in the presence of the inhibitor for at least 30 minutes in the assay buffer. When pre-incubation was completed (˜30 min), the reaction was initiated by adding NADPH (200 uM, final concentration), and 7-benzyloxy-4-(trifluoromethyl)-coumarin (BFC) (5 uM, final concentration). The oxidation of the coumarin substrate was recorded by a 96-well plate reader POLARstar (BMG LABTECH, Offenburg, Germany).
The initial reaction velocities were measured during the first 5 min of the reaction when the release of the fluorescent product is linear with time, in the absence and in the presence of various concentrations of inhibitors. For non-partial & partial inhibitors, the Kiapp values were determined by using the equation for tight-binding inhibitor developed by Morrison, J F (Morrison J F. Biochim Biophys Acta. 1969, 185: 269-86) and by Szedlaseck S E et al. (Szedlascek, S. E., Ostafe, V., Serban, M., and Vlad, M. O. Biochem. J. 1988, 254:311-312), respectively.
The fluorescent substrate BFC was purchased from Sigma (St Louis, Mo.). Two commercial sources of recombinant enzymes were used in this study: recombinant CYP3A4-b5 enzyme (Baculosomes®) was purchased from Invitrogen (Carlsbad, Calif.) and the recombinant CYP3A4+b5 enzyme (Supersomes®) was purchased from BD Biosciences (Woburn, Mass.).

[3] = target: T1, CYP3A4; experiment: IC50 against CYP3A4 by inhibition of midazolam metabolism in human liver microsomes; settings: 0.1 mg/mL human liver microsomes, 2 μM midazolam, 1 mM NADPH, 1-hydroxymidazolam production, eight minutes; read-out: IC50, μM (HLM, midazolam)
Method in brief: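 Human liver microsomes (0.1 mg/mL) incubated 8 min with 2 μM midazolam and 1 mM NADPH in 100 mM potassium phosphate, pH 7.4. 1-Hydroxymidazolam quantified by LC-MS/MS (MRM) as peak area ratio to internal standard against a metabolite standard curve.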

[4] = target: T3, recombinant CYP3A4-b5 enzyme (Baculosomes®) (Homo sapiens, UniProt P08684); experiment: Kiapp against recombinant CYP3A4 enzyme (Baculosomes), BFC substrate; settings: recombinant CYP3A4-b5 (Invitrogen), 5 uM BFC, 200 uM NADPH, pre-incubation at least 30 minutes, pH 7.0, room temperature
T3 construct: purchased Invitrogen (Carlsbad, Calif.)
Method in brief: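 Recombinant CYP3A4-b5 Baculosomes were run in 100 mM sodium phosphate pH 7.0 with 5 mM TCEP and 2% DMF at room temperature, with ~30 min pre-incubation. The reaction was started with NADPH (200 uM) and BFC (5 uM), both final. Kiapp came from initial fluorescence velocities over the first 5 min across inhibitor concentrations.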

T1 sequence (P08684 whole entry): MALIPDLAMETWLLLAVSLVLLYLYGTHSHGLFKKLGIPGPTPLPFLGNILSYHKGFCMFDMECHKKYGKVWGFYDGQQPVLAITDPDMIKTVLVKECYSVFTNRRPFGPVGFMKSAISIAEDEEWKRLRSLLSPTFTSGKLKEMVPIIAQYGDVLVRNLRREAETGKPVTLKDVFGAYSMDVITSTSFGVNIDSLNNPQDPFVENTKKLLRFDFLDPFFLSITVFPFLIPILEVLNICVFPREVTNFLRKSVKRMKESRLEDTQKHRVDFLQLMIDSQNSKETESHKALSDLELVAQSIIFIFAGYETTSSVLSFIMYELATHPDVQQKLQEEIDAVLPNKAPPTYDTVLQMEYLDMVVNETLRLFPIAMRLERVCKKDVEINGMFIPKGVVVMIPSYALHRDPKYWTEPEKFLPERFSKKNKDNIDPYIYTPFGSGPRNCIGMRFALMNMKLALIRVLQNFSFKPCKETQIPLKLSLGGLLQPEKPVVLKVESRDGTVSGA
T3 sequence (P08684 whole entry): as above
T2 sequence (P08684 2-503 limits assumed): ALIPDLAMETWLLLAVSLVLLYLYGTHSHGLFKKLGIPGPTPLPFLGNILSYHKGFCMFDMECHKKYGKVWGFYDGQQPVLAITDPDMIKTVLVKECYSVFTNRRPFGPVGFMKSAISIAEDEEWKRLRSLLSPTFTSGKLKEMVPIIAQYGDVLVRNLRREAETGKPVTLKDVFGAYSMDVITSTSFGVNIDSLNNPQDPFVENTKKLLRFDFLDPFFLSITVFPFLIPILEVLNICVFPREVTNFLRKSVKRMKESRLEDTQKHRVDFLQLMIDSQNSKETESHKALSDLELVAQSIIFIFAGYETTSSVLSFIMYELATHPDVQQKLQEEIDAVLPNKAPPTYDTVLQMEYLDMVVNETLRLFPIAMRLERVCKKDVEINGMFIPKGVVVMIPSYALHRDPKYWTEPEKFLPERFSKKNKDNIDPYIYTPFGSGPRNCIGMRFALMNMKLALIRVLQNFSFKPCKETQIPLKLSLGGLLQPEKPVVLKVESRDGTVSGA

Row | Structure (SMILES) | IC50 [1] [µM] | Ki [2] [µM] | IC50 [3] [µM] | Ki [4] [µM]
1 | CN(C(=O)Cn1nc(-c2c[nH]cn2)cc1Cc1ccc(F)cc1)[C@H]1CC[C@H](O)CC1 [Example 123, 2-[5-(4-fluorobenzyl)-3-(1H-imidazol-4-yl)-1H-pyrazol-1-yl]-N-(trans-4-hydroxycyclohexyl)-N-methylacetamide] | 0.554 | 0.167 | 0.397 | 0.459
2 | CC(C)(CN1CCOCC1)NC(=O)Cn1nc(-c2ccnnc2)cc1Cc1ccc(F)cc1 [Example 133, N-(1,1-dimethyl-2-morpholin-4-ylethyl)-2-[5-(4-fluorobenzyl)-3-pyridazin-4-yl-1H-pyrazol-1-yl]acetamide] | 0.044 | 0.174 | 0.083 | 0.21
3 | CNC(=O)NC1CN(C(=O)Cn2nc(-c3ccncc3)cc2Cc2ccc(F)cc2)C1 [Example 126, 1-(1-{[5-(4-fluorobenzyl)-3-pyridin-4-yl-1H-pyrazol-1-yl]acetyl}azetidin-3-yl)-3-methylurea] | 0.059 | 0.031 | 0.034 | 0.196
4 | COC(=O)N(C)C1CCN(C(=O)Cn2nc(-c3ccncc3)cc2Cc2ccc(F)cc2)C1 (stereo not shown) [Example 128, methyl (1-{[5-(4-fluorobenzyl)-3-pyridin-4-yl-1H-pyrazol-1-yl]acetyl}pyrrolidin-3-yl)methylcarbamate] | 0.026 | 0.00507 | 0.022 | 0.0488
5 | O=C(Cn1nc(-c2ccncc2)cc1Cc1ccc(F)cc1)N[C@H]1CC[C@@H](O)CC1 [Example 95, 2-[5-(4-fluorobenzyl)-3-pyridin-4-yl-1H-pyrazol-1-yl]-N-(cis-4-hydroxycyclohexyl)-acetamide] | < 0.021 | 0.0059 | < 0.012 | 0.0871
6 | O=C(Cn1nc(-c2ccncc2)cc1Cc1ccc(F)cc1)N1CCC(N2CCCCC2=O)CC1 [Example 136, 1′-{[5-(4-fluorobenzyl)-3-pyridin-4-yl-1H-pyrazol-1-yl]acetyl}-1,4′-bipiperidin-2-one] | 0.023 | 0.0119 | < 0.00833 | 0.0291
7 | CS(=O)(=O)CCN1CCN(C(=O)Cn2nc(-c3ccncc3)cc2Cc2ccc(F)cc2)CC1 [Example 131, 1-{[5-(4-fluorobenzyl)-3-pyridin-4-yl-1H-pyrazol-1-yl]acetyl}-4-[2-(methylsulfonyl)ethyl] piperazine] | 0.037 | 0.00283 | 0.0139 | 0.0111
8 | O=C(Cn1nc(-c2c[nH]cn2)cc1Cc1ccc(F)cc1)N1CCC[C@@H](O)C1 [Example 40, (3R)-1-{[5-(4-fluorobenzyl)-3-(1H-imidazol-4-yl)-1H-pyrazol-1-yl]acetyl}piperidin-3-ol] | > 0.75 |  | 0.446 | > 1
9 | CC(C)OC(=O)N(C)C1CCN(C(=O)Cn2nc(-c3ccncc3)cc2Cc2ccc(F)cc2)CC1 [Example 112, isopropyl (1-{[5-(4-fluorobenzyl)-3-pyridin-4-yl-1H-pyrazol-1-yl]acetyl}piperidin-4-yl)methylcarbamate] | 0.009 |  | 0.006 | 0.002
10 | Cc1noc(CNC(=O)Cn2nc(-c3ccncc3)cc2Cc2ccc(F)cc2)n1 [Example 90, 2-[5-(4-fluorobenzyl)-3-pyridin-4-yl-1H-pyrazol-1-yl]-N-[(3-methyl-1,2,4-oxadiazol-5-yl)methyl]acetamide] | 0.012 |  | 0.019 | 0.0773
11 | CN(C(=O)Cn1nc(-c2ccncc2)cc1Cc1ccc(F)cc1)[C@H]1CC[C@H](O)CC1 [Example 83, 2-[5-(4-fluorobenzyl)-3-pyridin-4-yl-1H-pyrazol-1-yl]-N-(trans-4-hydroxycyclohexyl)-N-methylacetamide] | 0.0235 |  | 0.015 | 0.0458
12 | CCn1ccnc1CNC(=O)Cn1nc(-c2ccncc2)cc1Cc1ccc(F)cc1 [Example 79, N-[(1-ethyl-1H-imidazol-2-yl)methyl]-2-[5-(4-fluorobenzyl)-3-pyridin-4-yl-1H-pyrazol-1-yl]acetamide] | 0.019 |  | 0.016 | 0.052
